Test results: ChEMBL document CHEMBL1135841, “Use of parallel-synthesis combinatorial libraries for rapid identification of potent FKBP12 inhibitors” (Bioorg Med Chem Lett, 2002)
pKi: −log10 of the molar value.

Biological target: Peptidyl-prolyl cis-trans isomerase FKBP1A (Homo sapiens, UniProt P62942)
Experiment: Inhibition of peptidyl-prolyl isomerase (PPIase, or rotamase) activity of FK506 binding protein 12

Chain of Peptidyl-prolyl cis-trans isomerase FKBP1A (P62942 whole entry): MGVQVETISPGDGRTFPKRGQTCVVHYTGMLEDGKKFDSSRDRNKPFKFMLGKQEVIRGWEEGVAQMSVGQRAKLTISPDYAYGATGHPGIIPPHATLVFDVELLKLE

SMILES	pKi
Cc1ccc(S(=O)(=O)N2CCCCC2C(=O)OCCCc2ccc(Cl)cc2)cc1 (stereo not given)	5.36
O=C(OCCCc1ccc(Br)cc1)C1CCCCN1S(=O)(=O)Cc1ccccc1 (stereo not given)	5.57
C[C@@H](NC(=O)N1CCC[C@H]1C(=O)OCCCc1ccc(Br)cc1)c1ccccc1	< 5.00
COc1cc(CCCOC(=O)C2CCCCN2S(=O)(=O)Cc2ccccc2)cc(OC)c1 (stereo not given)	6.92
C[C@@H](NC(=O)N1CCC[C@H]1C(=O)OCCCc1ccc(F)cc1)c1ccccc1	5.36
O=C(OCCCc1ccc(F)cc1)C1CCCCN1S(=O)(=O)c1ccccc1 (stereo not given)	6.13
O=C(OCCCc1ccccc1)[C@@H]1CCCN1C(=O)Nc1ccccc1	6.09
O=C(OCCCc1ccc(Cl)cc1)C1CCCCN1S(=O)(=O)Cc1ccccc1 (stereo not given)	6.38
O=C(OCCCc1ccc(F)cc1)C1CCCCN1S(=O)(=O)Cc1ccccc1 (stereo not given)	6.49
COc1ccc(CCCOC(=O)C2CCCCN2S(=O)(=O)Cc2ccccc2)cc1 (stereo not given)	7.04
COc1ccc(CCCOC(=O)C2CCCCN2S(=O)(=O)c2ccccc2)cc1 (stereo not given)	6.59
O=C(OCCCc1ccc(Cl)cc1)C1CCCCN1S(=O)(=O)c1ccccc1 (stereo not given)	5.42
COc1ccc(CCCOC(=O)[C@@H]2CCCN2/C(S)=N/C2CCCCC2)cc1OC	7.07
COc1ccc(CCCOC(=O)C2CCCCN2S(=O)(=O)Cc2ccccc2)cc1OC (stereo not given)	7.33
C[C@@H](NC(=O)N1CCC[C@H]1C(=O)OCCCc1ccc(Cl)cc1)c1ccccc1	5.22
O=C(OCCCc1ccc(Br)cc1)C1CCCCN1S(=O)(=O)c1ccccc1 (stereo not given)	5.10
COc1cc(CCCOC(=O)C2CCCCN2S(=O)(=O)c2ccccc2)cc(OC)c1 (stereo not given)	6.32
COc1ccc(CCCOC(=O)C2CCCCN2S(=O)(=O)c2ccccc2)cc1OC (stereo not given)	6.74
COc1ccc(CCCOC(=O)C2CCCCN2S(=O)(=O)c2ccc(C)cc2)cc1 (stereo not given)	6.66
Cc1ccc(S(=O)(=O)N2CCCCC2C(=O)OCCCc2ccc(F)cc2)cc1 (stereo not given)	5.85
COc1cc(CCCOC(=O)C2CCCCN2S(=O)(=O)c2ccc(C)cc2)cc(OC)c1 (stereo not given)	6.40
COc1ccc(CCCOC(=O)[C@@H]2CCCN2S(=O)(=O)Cc2ccccc2)cc1	7.66

Other lines, results leading:

pKi	SMILES
4.33	O=C(OCCc1ccccc1)[C@@H]1CCCN1C(=S)NC12C[C@H]3C[C@@H](C1)C[C@@H](C2)C3
6.33	O=C(OCCCCc1ccccc1)[C@@H]1CCCN1C(=O)NC12C[C@H]3C[C@@H](C1)C[C@@H](C2)C3
6.07	O=C(OCCCc1ccc(F)cc1)[C@@H]1CCCN1/C(S)=N/C12C[C@H]3C[C@@H](C1)C[C@@H](C2)C3
4.62	O=C(OCc1ccccc1)[C@@H]1CCCN1C(=O)Nc1ccccc1
6.00	O=C(OCCCc1ccccc1)[C@@H]1CCCN1C(=O)NC12C[C@H]3C[C@@H](C1)C[C@@H](C2)C3
5.64	O=C(OCCCc1ccc(Cl)cc1)[C@@H]1CCCN1C(=O)NC12C[C@H]3C[C@@H](C1)C[C@@H](C2)C3
5.14	O=C(OCCCCc1ccccc1)[C@@H]1CCCN1C(=S)NC12C[C@H]3C[C@@H](C1)C[C@@H](C2)C3
5.92	O=C(OCCCc1ccc(F)cc1)[C@@H]1CCCN1C(=O)NC12C[C@H]3C[C@@H](C1)C[C@@H](C2)C3
5.28	O=C(OCCCc1ccccc1)[C@@H]1CCCN1C(=S)NC12C[C@H]3C[C@@H](C1)C[C@@H](C2)C3
5.89	O=C(OCCc1ccccc1)[C@@H]1CCCN1C(=O)NC12C[C@H]3C[C@@H](C1)C[C@@H](C2)C3
5.82	O=C(OCCCc1ccc(Cl)cc1)[C@@H]1CCCN1C(=S)NC12C[C@H]3C[C@@H](C1)C[C@@H](C2)C3
7.92	COc1ccc(CCCOC(=O)C2CCCCN2C(=O)NC23CC4CC(CC(C4)C2)C3)c(OC)c1 (stereo not given)
5.20	O=C(OCCCc1ccc(Br)cc1)[C@@H]1CCCN1C(=S)NC12C[C@H]3C[C@@H](C1)C[C@@H](C2)C3
5.68	O=C(OCc1ccccc1)[C@@H]1CCCN1C(=O)NC12C[C@H]3C[C@@H](C1)C[C@@H](C2)C3
5.51	O=C(OCCCc1ccc(Br)cc1)[C@@H]1CCCN1C(=O)NC12C[C@H]3C[C@@H](C1)C[C@@H](C2)C3
5.89	O=C(OCCc1ccccc1)[C@@H]1CCCN1C(=O)Nc1ccccc1
4.74	O=C(OCc1ccccc1)[C@@H]1CCCN1C(=S)NC12C[C@H]3C[C@@H](C1)C[C@@H](C2)C3
7.49	COc1ccc(CCCOC(=O)C2CCCCN2C(=O)NC23CC4CC(CC(C4)C2)C3)cc1OC (stereo not given)
